{
  "source": "paper PMC5762315",
  "about": "“Inhibition of polo-like kinase 4 (PLK4): a new therapeutic option for rhabdoid tumors and pediatric medulloblastoma” (Oncotarget, 2017)",
  "test_in_all_cases": "LanthaScreen Eu Kinase Binding Assay, panel of 486 biochemical kinase assays",
  "key": {"various kinases [1]": {"target": "various kinases (Homo sapiens, UniProt P00519, M351T)", "conditions": "ABL1 M351T"}, "various kinases [2]": {"target": "various kinases (Homo sapiens, UniProt P07949, V804M)", "sequence (P07949 29-1114 V804M)": "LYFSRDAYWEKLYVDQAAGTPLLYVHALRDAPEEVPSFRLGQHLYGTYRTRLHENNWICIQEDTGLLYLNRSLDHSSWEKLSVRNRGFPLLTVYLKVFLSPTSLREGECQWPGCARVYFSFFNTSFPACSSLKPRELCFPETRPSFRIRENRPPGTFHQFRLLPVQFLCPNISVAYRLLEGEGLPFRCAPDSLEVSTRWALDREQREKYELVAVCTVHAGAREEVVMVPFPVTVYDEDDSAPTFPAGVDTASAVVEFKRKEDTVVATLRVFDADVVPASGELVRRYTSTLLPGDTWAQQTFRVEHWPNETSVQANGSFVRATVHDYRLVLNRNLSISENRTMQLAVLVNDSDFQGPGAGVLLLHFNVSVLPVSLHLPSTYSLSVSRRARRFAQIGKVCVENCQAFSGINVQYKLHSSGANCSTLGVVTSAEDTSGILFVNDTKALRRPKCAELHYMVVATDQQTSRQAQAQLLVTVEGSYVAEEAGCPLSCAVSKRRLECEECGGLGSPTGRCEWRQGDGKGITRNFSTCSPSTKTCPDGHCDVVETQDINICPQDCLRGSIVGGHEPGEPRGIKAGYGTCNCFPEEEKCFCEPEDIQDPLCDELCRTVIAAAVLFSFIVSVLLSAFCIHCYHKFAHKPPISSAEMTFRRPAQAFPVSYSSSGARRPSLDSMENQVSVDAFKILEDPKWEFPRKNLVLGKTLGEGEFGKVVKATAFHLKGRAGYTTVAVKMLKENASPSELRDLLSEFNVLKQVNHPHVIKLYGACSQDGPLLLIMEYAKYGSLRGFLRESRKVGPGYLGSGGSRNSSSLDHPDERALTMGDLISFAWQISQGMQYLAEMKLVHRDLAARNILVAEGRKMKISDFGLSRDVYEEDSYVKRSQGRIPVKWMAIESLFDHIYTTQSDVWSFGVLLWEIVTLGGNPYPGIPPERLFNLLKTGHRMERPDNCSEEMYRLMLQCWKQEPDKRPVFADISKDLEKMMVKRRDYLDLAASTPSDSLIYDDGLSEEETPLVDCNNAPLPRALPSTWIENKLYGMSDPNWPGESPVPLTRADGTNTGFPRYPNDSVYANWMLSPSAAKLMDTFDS", "conditions": "kinase RET V804M; LanthaScreen Binding"}, "various kinases [3]": {"target": "various kinases (Homo sapiens, UniProt P10721, D816H)", "sequence (P10721 26-976 D816H)": "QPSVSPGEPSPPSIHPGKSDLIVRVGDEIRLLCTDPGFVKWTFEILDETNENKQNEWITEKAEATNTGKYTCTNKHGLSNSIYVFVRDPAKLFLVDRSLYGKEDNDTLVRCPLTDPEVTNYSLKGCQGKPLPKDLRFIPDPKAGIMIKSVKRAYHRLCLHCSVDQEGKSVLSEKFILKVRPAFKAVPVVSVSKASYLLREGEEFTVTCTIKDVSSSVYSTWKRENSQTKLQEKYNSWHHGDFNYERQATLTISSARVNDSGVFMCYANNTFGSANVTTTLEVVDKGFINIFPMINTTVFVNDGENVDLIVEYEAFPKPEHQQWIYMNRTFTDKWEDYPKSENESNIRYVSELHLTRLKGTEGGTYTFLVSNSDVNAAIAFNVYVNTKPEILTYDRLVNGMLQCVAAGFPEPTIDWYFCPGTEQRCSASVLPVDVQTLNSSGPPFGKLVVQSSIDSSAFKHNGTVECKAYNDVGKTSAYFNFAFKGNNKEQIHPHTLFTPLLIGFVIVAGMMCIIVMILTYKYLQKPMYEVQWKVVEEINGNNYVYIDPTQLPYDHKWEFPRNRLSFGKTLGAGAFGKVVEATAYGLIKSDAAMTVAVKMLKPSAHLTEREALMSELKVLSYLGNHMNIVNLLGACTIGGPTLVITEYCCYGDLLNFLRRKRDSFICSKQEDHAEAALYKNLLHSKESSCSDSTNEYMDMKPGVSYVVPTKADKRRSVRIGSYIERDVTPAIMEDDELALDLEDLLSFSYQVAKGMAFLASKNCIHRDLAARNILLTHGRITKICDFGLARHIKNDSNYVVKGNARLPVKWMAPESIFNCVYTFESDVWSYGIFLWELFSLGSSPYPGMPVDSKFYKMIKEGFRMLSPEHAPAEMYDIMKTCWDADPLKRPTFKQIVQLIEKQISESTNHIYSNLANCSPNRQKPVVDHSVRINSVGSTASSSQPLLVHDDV", "conditions": "KIT D816H"}, "various kinases [4]": {"target": "various kinases (Homo sapiens, UniProt P10721, Y823D)", "sequence (P10721 26-976 Y823D)": "as the sequence (P10721 26-976 D816H) above, with H791D, Y798D counted along it", "conditions": "KIT Y823D"}, "various kinases [5]": {"target": "various kinases (Homo sapiens, UniProt P22612)", "sequence (P22612 whole entry)": "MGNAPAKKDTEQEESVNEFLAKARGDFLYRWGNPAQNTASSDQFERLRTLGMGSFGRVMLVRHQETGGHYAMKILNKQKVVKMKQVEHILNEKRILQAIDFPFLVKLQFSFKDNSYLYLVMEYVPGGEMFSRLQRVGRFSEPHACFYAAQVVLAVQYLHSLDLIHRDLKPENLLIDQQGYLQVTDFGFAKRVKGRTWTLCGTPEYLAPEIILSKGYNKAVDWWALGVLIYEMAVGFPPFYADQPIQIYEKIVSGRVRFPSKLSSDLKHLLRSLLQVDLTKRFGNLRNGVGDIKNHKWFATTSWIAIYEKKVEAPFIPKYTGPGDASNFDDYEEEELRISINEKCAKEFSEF", "conditions": "kinase PRKACG (PRKAC gamma); LanthaScreen Binding"}, "various kinases [6]": {"target": "various kinases (Homo sapiens, UniProt P30291)", "sequence (P30291 whole entry)": "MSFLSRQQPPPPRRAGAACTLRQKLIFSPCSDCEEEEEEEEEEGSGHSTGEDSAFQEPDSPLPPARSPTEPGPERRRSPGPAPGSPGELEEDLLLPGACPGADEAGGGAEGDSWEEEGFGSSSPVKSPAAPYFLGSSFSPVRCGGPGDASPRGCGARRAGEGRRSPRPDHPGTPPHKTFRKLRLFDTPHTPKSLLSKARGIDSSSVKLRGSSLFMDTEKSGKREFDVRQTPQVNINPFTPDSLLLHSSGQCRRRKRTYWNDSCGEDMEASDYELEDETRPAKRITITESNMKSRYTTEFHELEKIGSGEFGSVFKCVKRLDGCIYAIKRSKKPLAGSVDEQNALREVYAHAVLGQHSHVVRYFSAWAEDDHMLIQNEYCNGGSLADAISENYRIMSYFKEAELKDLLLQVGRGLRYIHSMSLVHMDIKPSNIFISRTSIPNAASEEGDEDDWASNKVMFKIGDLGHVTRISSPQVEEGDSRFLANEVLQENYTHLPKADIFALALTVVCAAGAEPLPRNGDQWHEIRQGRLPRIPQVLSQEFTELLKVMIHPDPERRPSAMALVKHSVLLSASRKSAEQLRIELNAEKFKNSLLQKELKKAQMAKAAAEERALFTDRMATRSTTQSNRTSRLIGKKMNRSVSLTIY", "conditions": "kinase WEE1; LanthaScreen Binding"}, "various kinases [7]": {"target": "various kinases (Homo sapiens, UniProt P36507)", "conditions": "MAP2K2 (MEK2)"}, "various kinases [8]": {"target": "various kinases (Homo sapiens, UniProt P53667)", "conditions": "LIMK1"}, "various kinases [9]": {"target": "various kinases (Homo sapiens, UniProt Q08345)", "conditions": "DDR1"}, "various kinases [10]": {"target": "various kinases (Homo sapiens, UniProt Q09013)", "conditions": "DMPK"}, "various kinases [11]": {"target": "various kinases (Homo sapiens, UniProt Q5TCX8)", "conditions": "MLK4"}, "various kinases [12]": {"target": "T1, various kinases (Homo sapiens, UniProt Q6PHR2)", "T1 sequence (Q6PHR2 1-472)": "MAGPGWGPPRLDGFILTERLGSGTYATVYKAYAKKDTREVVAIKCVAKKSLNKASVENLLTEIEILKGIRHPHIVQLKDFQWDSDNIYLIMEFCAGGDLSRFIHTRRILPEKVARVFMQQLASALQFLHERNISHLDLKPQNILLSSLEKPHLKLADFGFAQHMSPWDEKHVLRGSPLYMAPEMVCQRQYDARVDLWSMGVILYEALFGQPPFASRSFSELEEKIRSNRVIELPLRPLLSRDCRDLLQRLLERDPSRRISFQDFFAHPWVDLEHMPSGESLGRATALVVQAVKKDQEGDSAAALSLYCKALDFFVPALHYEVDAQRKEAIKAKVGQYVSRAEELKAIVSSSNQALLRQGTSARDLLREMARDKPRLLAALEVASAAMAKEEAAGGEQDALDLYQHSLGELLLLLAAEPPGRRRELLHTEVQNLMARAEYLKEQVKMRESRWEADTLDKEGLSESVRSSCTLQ", "conditions": "kinase ULK3; LanthaScreen Binding"}, "various kinases [13]": {"target": "various kinases (Homo sapiens, UniProt Q86YV6)", "conditions": "MYLK4"}, "various kinases [14]": {"target": "various kinases (Homo sapiens, UniProt Q8TD08)", "conditions": "MAPK15 (ERK7)"}, "various kinases [15]": {"target": "various kinases (Homo sapiens, UniProt Q92918)", "conditions": "MAP4K1 (HPK1)"}, "various kinases [16]": {"target": "various kinases (Homo sapiens, UniProt Q9H2G2)", "sequence (Q9H2G2 whole entry)": "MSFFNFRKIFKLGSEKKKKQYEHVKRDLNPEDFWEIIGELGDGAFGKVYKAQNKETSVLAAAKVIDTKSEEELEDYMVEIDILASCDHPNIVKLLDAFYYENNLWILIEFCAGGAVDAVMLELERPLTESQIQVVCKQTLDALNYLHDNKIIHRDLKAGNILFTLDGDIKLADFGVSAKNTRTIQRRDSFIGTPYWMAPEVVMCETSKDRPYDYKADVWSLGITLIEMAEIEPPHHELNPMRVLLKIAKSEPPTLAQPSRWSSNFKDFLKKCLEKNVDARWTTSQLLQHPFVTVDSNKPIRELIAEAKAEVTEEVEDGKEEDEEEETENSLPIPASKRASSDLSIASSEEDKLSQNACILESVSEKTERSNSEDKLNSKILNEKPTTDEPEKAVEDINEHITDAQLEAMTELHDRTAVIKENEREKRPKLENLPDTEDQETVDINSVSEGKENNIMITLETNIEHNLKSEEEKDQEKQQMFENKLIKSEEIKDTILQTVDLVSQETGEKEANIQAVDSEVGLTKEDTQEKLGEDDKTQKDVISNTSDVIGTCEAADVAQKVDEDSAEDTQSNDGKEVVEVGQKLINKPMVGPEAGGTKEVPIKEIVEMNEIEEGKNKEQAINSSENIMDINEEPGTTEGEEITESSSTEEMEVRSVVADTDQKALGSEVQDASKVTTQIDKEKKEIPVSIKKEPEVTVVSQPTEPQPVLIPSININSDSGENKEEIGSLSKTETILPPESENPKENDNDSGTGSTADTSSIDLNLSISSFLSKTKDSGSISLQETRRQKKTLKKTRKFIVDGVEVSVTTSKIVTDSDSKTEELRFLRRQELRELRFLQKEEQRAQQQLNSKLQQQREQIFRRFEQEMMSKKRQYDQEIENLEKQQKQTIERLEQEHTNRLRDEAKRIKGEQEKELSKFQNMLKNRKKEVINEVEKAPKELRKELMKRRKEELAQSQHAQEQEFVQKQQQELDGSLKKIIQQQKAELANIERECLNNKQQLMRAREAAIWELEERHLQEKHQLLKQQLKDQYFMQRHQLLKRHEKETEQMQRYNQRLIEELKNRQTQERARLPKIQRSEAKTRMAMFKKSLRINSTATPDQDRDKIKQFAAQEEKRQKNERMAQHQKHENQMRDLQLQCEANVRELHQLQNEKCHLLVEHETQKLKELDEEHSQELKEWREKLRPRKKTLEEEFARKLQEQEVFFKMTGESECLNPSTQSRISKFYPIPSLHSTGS", "conditions": "kinase SLK; LanthaScreen Binding"}, "various kinases [17]": {"target": "T2, various kinases (Homo sapiens, UniProt Q9H2K8)", "T2 sequence (Q9H2K8 1-898)": "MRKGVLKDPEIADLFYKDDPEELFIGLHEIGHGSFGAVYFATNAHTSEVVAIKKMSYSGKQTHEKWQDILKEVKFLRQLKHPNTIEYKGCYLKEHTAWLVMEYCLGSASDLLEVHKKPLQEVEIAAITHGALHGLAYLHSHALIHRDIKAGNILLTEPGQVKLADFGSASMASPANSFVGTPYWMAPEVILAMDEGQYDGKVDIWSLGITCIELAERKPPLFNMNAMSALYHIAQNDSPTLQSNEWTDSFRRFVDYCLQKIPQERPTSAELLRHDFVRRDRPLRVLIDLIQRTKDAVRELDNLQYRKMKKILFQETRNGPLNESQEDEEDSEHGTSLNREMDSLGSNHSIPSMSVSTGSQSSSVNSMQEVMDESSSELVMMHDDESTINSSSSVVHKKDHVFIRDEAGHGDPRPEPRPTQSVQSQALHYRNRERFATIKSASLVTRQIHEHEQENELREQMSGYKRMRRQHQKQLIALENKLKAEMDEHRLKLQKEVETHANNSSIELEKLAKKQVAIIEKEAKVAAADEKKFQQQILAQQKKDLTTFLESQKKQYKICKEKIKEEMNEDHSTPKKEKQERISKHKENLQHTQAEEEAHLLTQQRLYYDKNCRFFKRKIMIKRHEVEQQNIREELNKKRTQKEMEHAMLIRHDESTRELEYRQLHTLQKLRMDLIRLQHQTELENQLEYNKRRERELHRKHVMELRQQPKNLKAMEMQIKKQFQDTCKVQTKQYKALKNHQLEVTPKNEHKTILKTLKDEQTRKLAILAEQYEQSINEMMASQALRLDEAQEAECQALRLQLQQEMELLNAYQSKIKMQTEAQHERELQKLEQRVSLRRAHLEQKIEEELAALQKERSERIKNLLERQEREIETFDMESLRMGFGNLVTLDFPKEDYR", "conditions": "kinase TAOK3 (JIK); LanthaScreen Binding"}, "various kinases [18]": {"target": "various kinases (Homo sapiens, UniProt Q9Y2H1)", "sequence (Q9Y2H1 whole entry)": "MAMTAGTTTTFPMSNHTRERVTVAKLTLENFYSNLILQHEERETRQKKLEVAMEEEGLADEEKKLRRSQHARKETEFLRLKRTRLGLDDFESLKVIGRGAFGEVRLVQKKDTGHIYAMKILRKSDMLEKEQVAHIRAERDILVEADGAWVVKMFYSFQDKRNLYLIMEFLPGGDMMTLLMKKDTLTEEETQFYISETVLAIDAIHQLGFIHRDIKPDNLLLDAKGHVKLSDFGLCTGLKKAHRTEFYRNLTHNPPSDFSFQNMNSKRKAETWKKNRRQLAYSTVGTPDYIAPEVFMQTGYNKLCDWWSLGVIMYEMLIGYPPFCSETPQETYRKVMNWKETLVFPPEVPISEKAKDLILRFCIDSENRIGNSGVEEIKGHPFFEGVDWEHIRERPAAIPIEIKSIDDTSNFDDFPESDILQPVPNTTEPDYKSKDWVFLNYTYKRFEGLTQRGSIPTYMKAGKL", "conditions": "kinase STK38L (NDR2); LanthaScreen Binding"}, "various kinases [19]": {"target": "various kinases (Homo sapiens, UniProt Q9Y616)", "conditions": "IRAK3"}, "various kinases [20]": {"test_system": "various kinases"}},
  "note": "Values joined by “and” are separate entries in the source; they are usually repeats but may differ in a detail not shown here. Equal entries are not always repeated.",
  "data": [
    {"smiles": "COc1ccc2c(c1)[C@]1(C[C@H]1c1ccc3c(/C=C/c4ccc(CN5C[C@@H](C)O[C@@H](C)C5)cc4)n[nH]c3c1)C(=O)N2", "note": "[CFI-400945]", "values": [
      {"measurement": "% Inhibition", "setting": "various kinases [1]", "result": "78% and 79%"},
      {"measurement": "% Inhibition Average", "setting": "various kinases [2]", "result": 34, "unit": "%"},
      {"measurement": "% Inhibition Duplicate #1", "setting": "various kinases [2]", "result": 29, "unit": "%"},
      {"measurement": "% Inhibition Duplicate #2", "setting": "various kinases [2]", "result": 39, "unit": "%"},
      {"measurement": "% Inhibition", "setting": "various kinases [3]", "result": "21% and 20%"},
      {"measurement": "% Inhibition", "setting": "various kinases [4]", "result": "4% and -6%"},
      {"measurement": "% Inhibition Average", "setting": "various kinases [5]", "result": 18, "unit": "%"},
      {"measurement": "% Inhibition Duplicate #1", "setting": "various kinases [5]", "result": 25, "unit": "%"},
      {"measurement": "% Inhibition Duplicate #2", "setting": "various kinases [5]", "result": 11, "unit": "%"},
      {"measurement": "% Inhibition Average", "setting": "various kinases [6]", "result": -5, "unit": "%"},
      {"measurement": "% Inhibition Duplicate #1", "setting": "various kinases [6]", "result": -7, "unit": "%"},
      {"measurement": "% Inhibition Duplicate #2", "setting": "various kinases [6]", "result": -2, "unit": "%"},
      {"measurement": "% Inhibition", "setting": "various kinases [7]", "result": "1% and 2%"},
      {"measurement": "% Inhibition", "setting": "various kinases [8]", "result": "11% and 15%"},
      {"measurement": "% Inhibition", "setting": "various kinases [9]", "result": "46% and 45%"},
      {"measurement": "% Inhibition", "setting": "various kinases [10]", "result": "1% and -3%"},
      {"measurement": "% Inhibition", "setting": "various kinases [11]", "result": "8% and 4%"},
      {"measurement": "% Inhibition Average", "setting": "various kinases [12]", "result": 0, "unit": "%"},
      {"measurement": "% Inhibition Duplicate #1", "setting": "various kinases [12]", "result": -4, "unit": "%"},
      {"measurement": "% Inhibition Duplicate #2", "setting": "various kinases [12]", "result": 3, "unit": "%"},
      {"measurement": "% Inhibition", "setting": "various kinases [13]", "result": "7% and 13%"},
      {"measurement": "% Inhibition", "setting": "various kinases [14]", "result": "11% and 8%"},
      {"measurement": "% Inhibition", "setting": "various kinases [15]", "result": "45% and 35%"},
      {"measurement": "% Inhibition Average", "setting": "various kinases [16]", "result": 5, "unit": "%"},
      {"measurement": "% Inhibition Duplicate #1", "setting": "various kinases [16]", "result": 4, "unit": "%"},
      {"measurement": "% Inhibition Duplicate #2", "setting": "various kinases [16]", "result": 6, "unit": "%"},
      {"measurement": "% Inhibition Average", "setting": "various kinases [17]", "result": 10, "unit": "%"},
      {"measurement": "% Inhibition Duplicate #1", "setting": "various kinases [17]", "result": 14, "unit": "%"},
      {"measurement": "% Inhibition Duplicate #2", "setting": "various kinases [17]", "result": 6, "unit": "%"},
      {"measurement": "% Inhibition Average", "setting": "various kinases [18]", "result": 16, "unit": "%"},
      {"measurement": "% Inhibition Duplicate #1", "setting": "various kinases [18]", "result": 10, "unit": "%"},
      {"measurement": "% Inhibition Duplicate #2", "setting": "various kinases [18]", "result": 21, "unit": "%"},
      {"measurement": "% Inhibition", "setting": "various kinases [19]", "result": 29, "unit": "%"},
      {"measurement": "% Inhibition", "setting": "various kinases [20]; ALK T1151_L1152insT", "result": "31% and 35%"},
      {"measurement": "% Inhibition", "setting": "various kinases [20]; EGFR (ErbB1) d747-749 A750P", "result": "12% and 23%"},
      {"measurement": "% Inhibition", "setting": "various kinases [20]; FLT3 ITD", "result": "45% and 41%"},
      {"measurement": "% Inhibition", "setting": "various kinases [20]; MAP3K7/MAP3K7IP1 (TAK1-TAB1)", "result": 8, "unit": "%"}
    ]}
  ]
}
